Results: patent US20250176602A1, “Composition for Proliferation of Bacteroides uniformis in the Intestinal Tract” (Asahi Group Holdings, Ltd., priority 2019, published 2025)

Experiment: Fatigue feeling mitigation test, VAS general fatigue feeling (Example 5)
Assay type: in vivo, human
Conditions: after 8-week intake, about 1000 mg/day; p<0.05
Experimental: As the test subjects, 86 healthy males at the ages of 20 to 49 who have exercise habits of conducting exercise with an intensity of 5 METs or more for 30 minutes or more once or twice a week and who can continue the exercise habits during the test period as well were selected.
Among the 86 test subjects, 43 test subjects were selected as an α-cyclodextrin (αCD) intake group, and the remaining 43 test subjects were selected as a placebo group. The test subjects themselves were not informed who belonged to which group.
Test Supplements (tablets) having compositions described in Table 4 below were used. One tablet of the test supplements was of about 600 mg.
Each test subject of the αCD intake group and the placebo group was asked to take in 4 tablets of the above test supplements once a day at any timing. That is, each test subject of the α-cyclodextrin intake group was asked to take in about 1000 mg of α-cyclodextrin per day.
The intake period for the test supplements was set to 8 weeks, and the heart rate during exercise was measured, before the start of the intake, after 4-week intake, and after 8-week intake to evaluate change in heart rate. In addition, a questionnaire on fatigue feeling was conducted before the start of the intake of the test supplements and after 8-week intake, and change in travel time was evaluated. […]

OC[C@H]1O[C@@H]2O[C@H]3[C@H](O)[C@@H](O)[C@@H](O[C@H]4[C@H](O)[C@@H](O)[C@@H](O[C@H]5[C@H](O)[C@@H](O)[C@@H](O[C@H]6[C@H](O)[C@@H](O)[C@@H](O[C@H]7[C@H](O)[C@@H](O)[C@@H](O[C@H]1[C@H](O)[C@H]2O)O[C@@H]7CO)O[C@@H]6CO)O[C@@H]5CO)O[C@@H]4CO)O[C@@H]3CO [α-cyclodextrin]
general fatigue feeling (VAS) immediately after exercise, change vs before intake, compared with placebo group: significantly decreased
